Columns and labels:
giant foxtail = test: Test B pre/postemergence giant foxtail; format: in vivo, Setaria faberii
Summary of the method: (§1)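 Test chemicals in a non-phytotoxic solvent mixture with surfactant were sprayed preemergence onto planted seeds and postemergence onto plants 2 to 18 cm tall (1- to 4-leaf stage). After twelve to sixteen days in a greenhouse, injury was visually rated against untreated controls from 0 (no effect) to 10 (complete control).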

crabgrass = test: Test B pre/postemergence crabgrass; format: in vivo, Digitaria sanguinalis
Summary of the method: as §1

purple nutsedge = test: Test B pre/postemergence purple nutsedge; format: in vivo, Cyperus rotundus
Summary of the method: as §1

surinam grass = test: Test B pre/postemergence surinam grass; format: in vivo, Brachiaria decumbens
Summary of the method: as §1

blackgrass = test: Test B pre/postemergence blackgrass; format: in vivo, Alopecurus myosuroides
Summary of the method: as §1

wheat = test: Test B pre/postemergence wheat; format: in vivo, Triticum aestivum
Summary of the method: as §1

corn = test: Test B pre/postemergence corn; format: in vivo, Zea mays
Summary of the method: as §1

rape = test: Test B pre/postemergence rape; format: in vivo, Brassica napus
Summary of the method: as §1

soybean = test: Test B pre/postemergence soybean; format: in vivo, Glycine max
Summary of the method: as §1

morningglory = test: Test B pre/postemergence morningglory; format: in vivo, Ipomoea hederacea
Summary of the method: as §1

wild oat = test: Test B pre/postemergence wild oat; format: in vivo, Avena fatua
Summary of the method: as §1

cocklebur = test: Test B pre/postemergence cocklebur; format: in vivo, Xanthium strumarium
Summary of the method: as §1

pigweed = test: Test B pre/postemergence pigweed; format: in vivo, Amaranthus retroflexus
Summary of the method: as §1

sugar beet = test: Test B pre/postemergence sugar beet; format: in vivo, Beta vulgaris
Summary of the method: as §1

bedstraw = test: Test B pre/postemergence bedstraw; format: in vivo, Galium aparine
Summary of the method: as §1

velvetleaf = test: Test B pre/postemergence velvetleaf; format: in vivo, Abutilon theophrasti
Summary of the method: as §1

[1] = Postemergence, Rate 62 g/ha, scale 0 to 10, 0 is no effect, 10 is complete control
[2] = Postemergence, Rate 125 g/ha, scale of 0 to 10 where 0 is no effect and 10 is complete control
[3] = Preemergence, Rate 125 g/ha, scale of 0 to 10 where 0 is no effect and 10 is complete control
[4] = Preemergence, Rate 250 g/ha, scale 0 (no effect) to 10 (complete control)
[5] = Rate 62 g/ha, Preemergence, scale 0 to 10
[6] = Rate 250 g/ha, Postemergence, scale 0 to 10, 0 is no effect, 10 is complete control
[7] = Rate 500 g/ha, Postemergence, scale 0 to 10, 0 is no effect, 10 is complete control
[8] = Rate 500 g/ha, Preemergence, scale 0 to 10 (0 no effect, 10 complete control)

CC(C)N(C(=O)n1oc(=O)n(CC(F)F)c1=O)c1ccc(Cl)cc1 [Compound 745]
7: Crabgrass plant response rating (crabgrass; [5]) | Rape plant response rating (rape; [4]) | Rape plant response rating (rape; [7]) | Rape plant response rating (rape; [8]) | Redroot pigweed plant response rating (pigweed; [5]) | Bedstraw plant response rating (bedstraw; [6]) | Velvetleaf plant response rating (velvetleaf; [7])
2: Plant response rating, Giant foxtail (giant foxtail; [1]) | Giant foxtail plant response rating (giant foxtail; [2]) | Corn plant response rating (corn; [4]) | Corn plant response rating (corn; [8]) | Wild oats plant response rating (wild oat; [5]) | Plant response rating, Redroot pigweed (pigweed; [1]) | Redroot pigweed plant response rating (pigweed; [2]) | Plant response rating, Sugarbeets (sugar beet; [1]) | Sugarbeets plant response rating (sugar beet; [2])
3: Plant response rating, Blackgrass (blackgrass; [1]) | Blackgrass plant response rating (blackgrass; [2]) | Blackgrass plant response rating (blackgrass; [5]) | Wheat plant response rating (wheat; [7]) | Plant response rating, Soybean (soybean; [1]) | Soybean plant response rating (soybean; [2]) | Plant response rating, Morningglory (morningglory; [1]) | Morningglory plant response rating (morningglory; [2]) | Morningglory plant response rating (morningglory; [6]) | Morningglory plant response rating (morningglory; [8]) | Velvetleaf plant response rating (velvetleaf; [6])
5: Nutsedge plant response rating (purple nutsedge; [8]) | Plant response rating, Rape (rape; [3]) | Rape plant response rating (rape; [6]) | Soybean plant response rating (soybean; [6]) | Soybean plant response rating (soybean; [7]) | Redroot pigweed plant response rating (pigweed; [6]) | Bedstraw plant response rating (bedstraw; [4]) | Bedstraw plant response rating (bedstraw; [8])
9: Giant foxtail plant response rating (giant foxtail; [6]) | Giant foxtail plant response rating (giant foxtail; [7]) | Crabgrass plant response rating (crabgrass; [6]) | Crabgrass plant response rating (crabgrass; [7]) | Plant response rating, B. signalgrass (surinam grass; [3]) | Blackgrass plant response rating (blackgrass; [4]) | Blackgrass plant response rating (blackgrass; [7]) | Blackgrass plant response rating (blackgrass; [8]) | Plant response rating, Redroot pigweed (pigweed; [3]) | Bedstraw plant response rating (bedstraw; [7])
0: Plant response rating, Nutsedge (purple nutsedge; [1]) | Nutsedge plant response rating (purple nutsedge; [2]) | Nutsedge plant response rating (purple nutsedge; [4]) | Nutsedge plant response rating (purple nutsedge; [5]) | Nutsedge plant response rating (purple nutsedge; [6]) | Nutsedge plant response rating (purple nutsedge; [7]) | Plant response rating, B. signalgrass (surinam grass; [1]) | B. signalgrass plant response rating (surinam grass; [2]) | Plant response rating, Wheat (wheat; [1]) | Wheat plant response rating (wheat; [2]) | Plant response rating, Wheat (wheat; [3]) | Wheat plant response rating (wheat; [4]) | Wheat plant response rating (wheat; [5]) | Wheat plant response rating (wheat; [6]) | Wheat plant response rating (wheat; [8]) | Plant response rating, Corn (corn; [1]) | Corn plant response rating (corn; [2]) | Plant response rating, Corn (corn; [3]) | Corn plant response rating (corn; [5]) | Corn plant response rating (corn; [6]) | Corn plant response rating (corn; [7]) | Plant response rating, Rape (rape; [1]) | Rape plant response rating (rape; [2]) | Rape plant response rating (rape; [5]) | Plant response rating, Soybean (soybean; [3]) | Soybean plant response rating (soybean; [4]) | Soybean plant response rating (soybean; [5]) | Soybean plant response rating (soybean; [8]) | Plant response rating, Morningglory (morningglory; [3]) | Morningglory plant response rating (morningglory; [4]) | Morningglory plant response rating (morningglory; [5]) | Plant response rating, Wild oats (wild oat; [1]) | Wild oats plant response rating (wild oat; [2]) | Plant response rating, Cocklebur (cocklebur; [1]) | Cocklebur plant response rating (cocklebur; [2]) | Plant response rating, Cocklebur (cocklebur; [3]) | Cocklebur plant response rating (cocklebur; [4]) | Cocklebur plant response rating (cocklebur; [5]) | Cocklebur plant response rating (cocklebur; [6]) | Cocklebur plant response rating (cocklebur; [8]) | Sugarbeets plant response rating (sugar beet; [5]) | Bedstraw plant response rating (bedstraw; [5]) | Plant response rating, Velvetleaf (velvetleaf; [1]) | Velvetleaf plant response rating (velvetleaf; [2]) | Plant response rating, Velvetleaf (velvetleaf; [3]) | Velvetleaf plant response rating (velvetleaf; [5])
10: Plant response rating, Giant foxtail (giant foxtail; [3]) | Giant foxtail plant response rating (giant foxtail; [4]) | Giant foxtail plant response rating (giant foxtail; [5]) | Giant foxtail plant response rating (giant foxtail; [8]) | Plant response rating, Crabgrass (crabgrass; [3]) | Crabgrass plant response rating (crabgrass; [4]) | Crabgrass plant response rating (crabgrass; [8]) | B. signalgrass plant response rating (surinam grass; [4]) | B. signalgrass plant response rating (surinam grass; [8]) | Redroot pigweed plant response rating (pigweed; [4]) | Redroot pigweed plant response rating (pigweed; [8])
8: B. signalgrass plant response rating (surinam grass; Preemergence, Rate 62 g/ha, scale of 0 to 10 where 0 is no effect and 10 is complete control) | Blackgrass plant response rating (blackgrass; [6]) | Morningglory plant response rating (morningglory; [7]) | Wild oats plant response rating (wild oat; [4]) | Wild oats plant response rating (wild oat; [8])
6: B. signalgrass plant response rating (surinam grass; [6]) | B. signalgrass plant response rating (surinam grass; [7]) | Plant response rating, Blackgrass (blackgrass; [3]) | Plant response rating, Wild oats (wild oat; [3]) | Redroot pigweed plant response rating (pigweed; [7]) | Velvetleaf plant response rating (velvetleaf; [8])
4: Plant response rating, Crabgrass (crabgrass; [1]) | Crabgrass plant response rating (crabgrass; [2]) | Wild oats plant response rating (wild oat; [6]) | Wild oats plant response rating (wild oat; [7]) | Cocklebur plant response rating (cocklebur; [7]) | Plant response rating, Sugarbeets (sugar beet; [3]) | Sugarbeets plant response rating (sugar beet; [4]) | Sugarbeets plant response rating (sugar beet; [6]) | Sugarbeets plant response rating (sugar beet; [7]) | Sugarbeets plant response rating (sugar beet; [8]) | Velvetleaf plant response rating (velvetleaf; [4])
